One assay relates to Cdc42 in Swiss 3T3 cells. Nature of the assay: EGF induced Cdc42 membrane localization. The assay is classed as cell-based. The note with it: 1 μM. How it is done:
Subconfluent cells were starved overnight in DMEM without serum and incubated with 1 or 10 μM inhibitor for 1 h. As a positive control, cells were stimulated with 100 ng/ml bradykinin for 30 min, or 100 ng/ml EGF as previously described {Kozma, 1995 #24}. Cells were washed with phosphate buffered saline, fixed with 3% paraformaldehyde, permeabilized for 5 min with 0.1% Triton X-100 in Tyrode's buffer, blocked for 1 h with 1% BSA in Tyrode's buffer, and stained for 1 h with rhodamine-phalloidin or Cdc42 mAb (Cytoskeleton Inc., Denver, Colo.) for 1 h followed by Cy3-conjugated goat-anti-mouse antibody (Jackson Immunoresearch Laboratories) for 1 h, at RT.

Assay [1] deals with Dbs (guanine nucleotide exchange factor) on Cdc42 wt. Nature of the assay: Effect on Dbs activity, [3H]GDP/GTP exchange. The note with it: 10 μM. The class given is biochemical. How it is done:
GSH-beads were coupled with Cdc42 wt, washed and incubated with 10 mM EDTA-NP-HPS for 20 min at 30° C. Nucleotide depleted enzyme washed with NP-HPS, and incubated with 2μCi [^3H]GDP in the presence of 1 mM EDTA (in NP-HPS buffer) for 20 min at 30° C. To prevent the dissociation of tritiated guanine nucleotide from the Cdc42, MgCl2 was added to a final concentration 20 mM. [^3H]GDP-Cdc42-beads washed and re-suspended in GDP exchange buffer (NP-HPS with 1 mM EDTA, 5 mM MgCl2, and 1 mM DTT) and 100 μl aliquots loaded in tubes and incubated with vehicle or 10 μM MLS000693334 for 15 min. Effect of the guanine nucleotide exchange factor domain, Dbs on GDP/GTP exchange in the presence and absence of inhibitor was measured after addition of 200 nM His-DBS (DH/PH domain). The GDP/GTP exchange reaction was initiated by addition of 250 nM GTP and incubation samples for 2 min 30 C. The reaction was stopped by transferring samples on ice. Cdc42-beads collected and washed twice with ice cold GDP exchange buffer and measured radioactivity, by loading samples in scintillation vial.

The target in assay [2] is His-Cdc42 binding to GST-PAK-PBD (Homo sapiens, UniProt P60953). Nature of the assay: In vitro Cdc42-GTPγS formation PAK-PBD pull-down. As to conditions: 10 μM inhibitor. The class given is biochemical. How it is done:
For analysis of the effect of MLS000693334 on the formation of the GTP-bound form of Cdc42 in vitro, 40 nM His-Cdc42 wt incubated (20 min at 30 C) with various concentration of GTPγS in the presence of 1 mM EDTA containing NP-HPS buffer. Reaction stopped by adding of excess amount of MgCl2. Mixture incubated with 15 μl PAK-PBD/beads (Cytoskeleton Inc., Denver, Colo.) for 1 h. Washed 2× and active Cdc42 analyzed by Western blot using mAb for Cdc42 (Cytoskeleton Inc., Denver, Colo.) and Mouse TrueBlot Ultra: Horseradish Peroxidase anti-mouse IgG (eBioscience. San Diego, Calif.) followed by ECL (Thermo Scientific, Rockford, Ill.).
For in vitro Cdc42 activation measurements, DMSO or an equal volume of SID57578341 in DMSO were incubated for 20 min at 30° C. with 40 nM His-Cdc42 protein and varying concentrations of GTPγS in 1 mM EDTA-containing buffer (NP-HPS). Further nucleotide exchange was inhibited with the addition of excess MgCl2 (60 mM final) and transfer to ice. Activated Cdc42 protein was isolated from solution by adding 15 μl GST-PAK-PBD bound glutathione beads and rotation at 4° C. for 1 h. Activated Cdc42 bound to GST-PAK-PDB was resolved by SDS-PAGE (12% gels) and analyzed by immunoblot using mAb directed against Cdc42 (Cytoskeleton, Inc.) and ECL (Thermo Scientific, Rockford, Ill.). Quantification was by densitometry.

The target of the next assay is T1, wild-type Cdc42 (Homo sapiens, UniProt P60953).
T1 construct: purchased Cytoskeleton
Description: Equilibrium binding assay of BODIPY-FL-GTP. The note with it: 1.5 nM substrate, 1 mM MgCl2; read-out: IC50, inhibition of fluorescent GTP binding to Cdc42 wt. How it is done:
Changes in GTP binding affinity (Kd) and Bmax in the presence of a given compound were measured in multiplex (Cdc42, Cdc42Q61L, Rab2, Rab7, H-Ras and H-RasG12V) and single-plex formats (Rac1, Rac1Q61L and GST-GFP). GTPases and the GST-GFP control were individually bound to glutathione beads overnight at 4° C., washed with HPSE buffer, then resuspended together or assayed individually in the same buffer containing DTT and BSA. Bound GTPases were analyzed by mixing 5 μl protein-bound beads with 2.5-100 nM BODIPY-GTP in a total volume of 10 μl and incubating with rotation at 4° C. for 90 min. DMSO controls and samples treated with 10 μM of each test compound were run in parallel. Bound fluorescent nucleotide was measured using a Cyan ADP flow cytometer. Data were converted to ASCII format using IDLeQuery, exported and analyzed using Prism (GraphPad Software, Inc., San Diego, Calif.) non-linear, one-site binding.
Wild-type GST-Cdc42 (4 μM) was bound to GSH-beads overnight at 4° C. Cdc42 on GSH-beads was depleted of nucleotide by incubating with 10 mM EDTA containing buffer for 20 min at 30° C., washing twice with NP-HPS buffer, then re-suspended in the same buffer containing 1 mM EDTA/or 1 mM MgCl2, 1 mM DTT and 0.1% BSA. […] Samples incubated at 4° C. for 45 min and binding of fluorescent nucleotide to enzyme measured using an Accuri flow cytometer. […]

SMILES strings stand for the structures.

His-Cdc42 binding to GST-PAK-PBD, sequence (P60953 whole entry): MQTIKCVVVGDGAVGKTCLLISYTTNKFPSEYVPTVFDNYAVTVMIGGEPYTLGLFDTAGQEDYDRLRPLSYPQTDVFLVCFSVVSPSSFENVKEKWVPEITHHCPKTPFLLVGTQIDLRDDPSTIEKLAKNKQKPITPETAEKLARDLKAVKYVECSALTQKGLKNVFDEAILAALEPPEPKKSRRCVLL
T1 sequence (P60953 whole entry): as above

As usually defined, the IC50 is the point on the concentration scale where inhibition reaches its midpoint. As for `COc1ccc(C2CC(c3ccccc3)=NN2c2ccc(S(N)(=O)=O)cc2)cc1` (stereo not shown) [MLS000693334, 4-[3-(4-methoxyphenyl)-5-phenyl-3,4-dihydropyrazol-2-yl]benzenesulfonamide], in the assay on Cdc42 in Swiss 3T3 cells, the “EGF induced localization of Cdc42 on the membrane” value is recorded as “reduced membrane localization”. Further, the “Dbs activity (GDP/GTP exchange)” value in assay [1] is recorded as “did not changes Dbs activity”. The “Complex formation of active Cdc42(GTPγS) with PAK-PBD” value in assay [2] is recorded as “dramatically reduced”. In addition, the IC50 on wild-type Cdc42 came to 200 nM.
